Values after ≈ are worked out from the molar mass of the structure shown.
What was measured:
Alternaria solani [1] = assay type: cell-based; conditions: 20 ppm
[2] = tested on: Blumeria graminis f. sp. tritici (Erysiphe graminis); assay: Leaf disk test at different concentrations, wheat; assay type: in vivo; conditions: preventative, disease control relative to untreated check
Gaeumannomyces graminis = assay: Liquid-culture fungal growth inhibition test; assay type: cell-based
Uromyces viciae-fabae = assay type: in vivo; conditions: 100 ppm
[3] = tested on: Glomerella lagenarium (Colletotrichum lagenarium); assay: Liquid-culture fungal growth inhibition test; assay type: cell-based
mice = conditions: cited from earlier work
[4] = tested on: Monographella nivalis (Microdochium nivale); assay: Liquid-culture fungal growth inhibition test; assay type: cell-based
[5] = tested on: Phaeosphaeria nodorum (Septoria nodorum); assay: Leaf disk test at different concentrations, wheat; assay type: in vivo; conditions: preventative, disease control relative to untreated check
[6] = tested on: Mycosphaerella arachidis (Cercospora arachidicola); assay: Liquid-culture fungal growth inhibition test; assay type: cell-based
Sclerotinia sclerotiorum = assay: Liquid-culture fungal growth inhibition test; assay type: cell-based
Pyrenophora teres = assay: Leaf disk test at different concentrations, barley; assay type: in vivo; conditions: preventative, disease control relative to untreated check
HeLa cells = conditions: cited from earlier work
Zymoseptoria tritici [7] = assay type: in vivo; conditions: 100 ppm
[8] = tested on: Botryotinia fuckeliana (Botrytis cinerea); assay: Liquid-culture fungal growth inhibition test; assay type: cell-based
Pythium ultimum = assay: Liquid-culture fungal growth inhibition test; assay type: cell-based; conditions: antifungal activity relative to untreated check, photometric, 2-7 days
Fusarium culmorum = assay: Liquid-culture fungal growth inhibition test; assay type: cell-based; conditions: antifungal activity relative to untreated check, photometric, 2-7 days
Description: Suspensions of mycelial fragments or conidia of a fungal species, prepared either freshly from liquid cultures of the fungus or from cryogenic storage, were directly mixed into nutrient broth. DMSO solutions of Ilicicolin H (max. 10 mg/ml) were diluted with 0.025% Tween 20 by a factor of 50, and 10μ L of this solution was pipetted into a microtitre plate (96-well format). The nutrient broth containing the fungal spores/mycelia fragments was then added to give a final concentration of Ilicicolin H. The test plates were incubated in the dark at 24° C. and 96% relative humidity. The inhibition of fungal growth was determined photometrically after 2-7 days, depending on the pathosystem, and percent antifungal activity relative to the untreated check was calculated.

[9] = tested on: Thanatephorus cucumeris (Rhizoctonia solani); assay: Liquid-culture fungal growth inhibition test; assay type: cell-based
Zymoseptoria tritici [10] = assay: Liquid-culture fungal growth inhibition test; assay type: cell-based
Phytophthora infestans [11] = assay type: in vivo; conditions: 200 ppm
Phytophthora infestans [12] = assay type: in vivo; conditions: tomato, preventative, disease control relative to untreated check
Botryotinia fuckeliana = assay type: cell-based; conditions: 20 ppm
Puccinia recondita = assay: Leaf disk test at different concentrations, wheat; assay type: in vivo; conditions: for Leaf-piece test rates (20 ppm), efficacy / Leaf-piece test rates (60 ppm), efficacy / Leaf-piece test rates (200 ppm), efficacy: wheat, disease control relative to untreated check
Alternaria solani [13] = assay: Leaf disk test at different concentrations, tomato; assay type: in vivo; conditions: preventative, disease control relative to untreated check
Pythium dissimile = assay type: cell-based; conditions: 20 ppm
Plasmopara viticola = assay: Leaf disk test at different concentrations, grapevine; assay type: in vivo; conditions: preventative, disease control relative to untreated check
Gibberella zeae = assay type: cell-based; conditions: 20 ppm
[14] = tested on: Magnaporthe grisea (Pyricularia oryzae); assay type: in vivo; conditions: rice, preventative, disease control relative to untreated check
[15] = 0.2 ppm, antifungal activity relative to untreated check, photometric, 2-7 days
[16] = 2 ppm, antifungal activity relative to untreated check, photometric, 2-7 days
[17] = 20 ppm, antifungal activity relative to untreated check, photometric, 2-7 days

## C/C=C/[C@H]1C(C(=O)c2c(O)c(-c3ccc(O)cc3)c[nH]c2=O)C=C(C)[C@H]2CC[C@H](C)C[C@@H]21 (stereo partly shown) [Ilicicolin H]
Alternaria solani [1]
  Disease control efficacy (average of two repeat experiments): 0
  activity in mycelial growth test: not active
[2]; 20 ppm
  Leaf-piece test rates (20 ppm), efficacy: 0%
[2]; 60 ppm
  Leaf-piece test rates (60 ppm), efficacy: 0%
[2]; 200 ppm
  Leaf-piece test rates (200 ppm), efficacy: 0%
Gaeumannomyces graminis
  activity in liquid-culture test: demonstrated activity
Gaeumannomyces graminis; [15]
  Liquid-culture test rates (0.2 ppm), efficacy: 0%
Gaeumannomyces graminis; [16]
  Liquid-culture test rates (2 ppm), efficacy: 90%
Gaeumannomyces graminis; [17]
  Liquid-culture test rates (20 ppm), efficacy: 100%
Uromyces viciae-fabae
  Disease control efficacy (average of two repeat experiments): 49
  activity in leaf-piece assay: active in one rep
[3]
  activity in liquid-culture test: demonstrated activity
[3]; [15]
  Liquid-culture test rates (0.2 ppm), efficacy: 0%
[3]; [16]
  Liquid-culture test rates (2 ppm), efficacy: 50%
[3]; [17]
  Liquid-culture test rates (20 ppm), efficacy: 100%
mice
  acute toxicity: low acute toxicity
[4]
  activity in liquid-culture test: demonstrated activity
[4]; [15]
  Liquid-culture test rates (0.2 ppm), efficacy: 0%
[4]; [16]
  Liquid-culture test rates (2 ppm), efficacy: 100%
[4]; [17]
  Liquid-culture test rates (20 ppm), efficacy: 100%
[5]; 20 ppm
  Leaf-piece test rates (20 ppm), efficacy: 0%
[5]; 60 ppm
  Leaf-piece test rates (60 ppm), efficacy: 0%
[5]; 200 ppm
  Leaf-piece test rates (200 ppm), efficacy: 0%
[6]
  activity in liquid-culture test: demonstrated activity
[6]; [15]
  Liquid-culture test rates (0.2 ppm), efficacy: 0%
[6]; [16]
  Liquid-culture test rates (2 ppm), efficacy: 100%
[6]; [17]
  Liquid-culture test rates (20 ppm), efficacy: 100%
Sclerotinia sclerotiorum
  activity in liquid-culture test: demonstrated activity
Sclerotinia sclerotiorum; [15]
  Liquid-culture test rates (0.2 ppm), efficacy: 0%
Sclerotinia sclerotiorum; [16]
  Liquid-culture test rates (2 ppm), efficacy: 20%
Sclerotinia sclerotiorum; [17]
  Liquid-culture test rates (20 ppm), efficacy: 50%
Pyrenophora teres; 20 ppm
  Leaf-piece test rates (20 ppm), efficacy: 0%
Pyrenophora teres; 60 ppm
  Leaf-piece test rates (60 ppm), efficacy: 0%
Pyrenophora teres; 200 ppm
  Leaf-piece test rates (200 ppm), efficacy: 0%
HeLa cells
  ED50 (cytotoxicity): 2 µg/mL (≈ 4.61 µM)
Zymoseptoria tritici [7]
  Disease control efficacy (average of two repeat experiments): 99
  activity in leaf-piece assay: active
[8]
  activity in liquid-culture test: demonstrated activity
[8]; [15]
  Liquid-culture test rates (0.2 ppm), efficacy: 0%
[8]; [16]
  Liquid-culture test rates (2 ppm), efficacy: 70%
[8]; [17]
  Liquid-culture test rates (20 ppm), efficacy: 100%
Pythium ultimum; 0.2 ppm
  Liquid-culture test rates (0.2 ppm), efficacy: 0%
Pythium ultimum; 2 ppm
  Liquid-culture test rates (2 ppm), efficacy: 0%
Pythium ultimum; 20 ppm
  Liquid-culture test rates (20 ppm), efficacy: 0%
Fusarium culmorum; 0.2 ppm
  Liquid-culture test rates (0.2 ppm), efficacy: 0%
Fusarium culmorum; 2 ppm
  Liquid-culture test rates (2 ppm), efficacy: 0%
Fusarium culmorum; 20 ppm
  Liquid-culture test rates (20 ppm), efficacy: 0%
[9]
  activity in liquid-culture test: demonstrated activity
[9]; [15]
  Liquid-culture test rates (0.2 ppm), efficacy: 0%
[9]; [16]
  Liquid-culture test rates (2 ppm), efficacy: 50%
[9]; [17]
  Liquid-culture test rates (20 ppm), efficacy: 70%
Zymoseptoria tritici [10]
  activity in liquid-culture test: demonstrated activity
Zymoseptoria tritici [10]; [15]
  Liquid-culture test rates (0.2 ppm), efficacy: 90%
Zymoseptoria tritici [10]; [16]
  Liquid-culture test rates (2 ppm), efficacy: 100%
Zymoseptoria tritici [10]; [17]
  Liquid-culture test rates (20 ppm), efficacy: 100%
Phytophthora infestans [11]; tomato
  activity in leaf-piece assay: active
Phytophthora infestans [11]; tomato leaf piece, applied prior to inoculation, visual 3 band score
  Disease control efficacy (average of two repeat experiments): 99
Phytophthora infestans [12]; 20 ppm
  Leaf-piece test rates (20 ppm), efficacy: 0%
Phytophthora infestans [12]; 60 ppm
  Leaf-piece test rates (60 ppm), efficacy: 0%
Phytophthora infestans [12]; 200 ppm
  Leaf-piece test rates (200 ppm), efficacy: 0%
Botryotinia fuckeliana
  Disease control efficacy (average of two repeat experiments): 99
  activity in mycelial growth test: active
Puccinia recondita; curative
  Leaf-piece test rates (20 ppm), efficacy: 0%
  Leaf-piece test rates (60 ppm), efficacy: 0%
  Leaf-piece test rates (200 ppm), efficacy: 0%
Puccinia recondita; preventative
  Leaf-piece test rates (20 ppm), efficacy: 0%
  Leaf-piece test rates (60 ppm), efficacy: 50%
  Leaf-piece test rates (200 ppm), efficacy: 90%
Puccinia recondita; wheat leaf disks
  activity in leaf disk test: demonstrated activity
Alternaria solani [13]; 20 ppm
  Leaf-piece test rates (20 ppm), efficacy: 0%
Alternaria solani [13]; 60 ppm
  Leaf-piece test rates (60 ppm), efficacy: 0%
Alternaria solani [13]; 200 ppm
  Leaf-piece test rates (200 ppm), efficacy: 0%
Pythium dissimile
  Disease control efficacy (average of two repeat experiments): 0
  activity in mycelial growth test: not active
Plasmopara viticola; 20 ppm
  Leaf-piece test rates (20 ppm), efficacy: 0%
Plasmopara viticola; 60 ppm
  Leaf-piece test rates (60 ppm), efficacy: 0%
Plasmopara viticola; 200 ppm
  Leaf-piece test rates (200 ppm), efficacy: 0%
Gibberella zeae
  activity in mycelial growth test: not active
Gibberella zeae; artificial media, visual 3 band score, 4 to 14 days after inoculation
  Disease control efficacy (average of two repeat experiments): 0
[14]; 20 ppm
  Leaf-piece test rates (20 ppm), efficacy: 0%
[14]; 60 ppm
  Leaf-piece test rates (60 ppm), efficacy: 0%
[14]; 200 ppm
  Leaf-piece test rates (200 ppm), efficacy: 0%
